Test results as given in PubChem BioAssay AID2060903 (Molecular Pharmacology Branch, DTP, NCI, 2025).
Each block holds one compound with its values, some of them ahead of it.

System: 377384-186-R-J1-PDC complex spheroid viability
Experiment: Anticancer human tumor 377384-186-R-J1-PDC patient-derived pancreatic carcinoma cell line growth inhibition [RAS]
Conditions: for viability, T/C: stronger effect = lower value
In short: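 Agents were tested in combination matrices in half-log decrements from a top concentration at or near clinical Cmax (10 microM if undetermined). Targets were multi-cell spheroids of tumour lines plus HUVEC and MSC stromal cells.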

[1] = curve of first compound, second compound 0.000949 µM
[2] = curve of first compound, second compound 0.003 µM
[3] = curve of first compound, second compound 0.00949 µM
[4] = curve of first compound, second compound 0.03 µM
[5] = curve of first compound, second compound 0.0949 µM
[6] = curve of first compound, second compound 0.3 µM
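Further: spheroids exposed to compounds for seven days before readout.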

IC50 [1]: < 0.000949 µM
IC50 [2]: < 0.000949 µM
IC50 [3]: < 0.000949 µM
IC50 [4]: < 0.000949 µM
IC50 [5]: < 0.000949 µM
IC50 [6]: < 0.000949 µM
Compound: CC1(C)CCC(Nc2ncc(C(F)(F)F)c(-c3c[nH]c4c(P(C)(C)=O)c(C#N)ccc34)n2)CN1 (stereo not given) + CCn1c(-c2cc(N3CCN(C)CC3)cnc2C(C)OC)c2c3cc(ccc31)-c1csc(n1)CC(NC(=O)C1CC1C)C(=O)N1CCCC(N1)C(=O)OCC(C)(C)C2
viability, T/C (second compound 0.000949 µM, first compound 0.000949 µM): 42.6%
viability, T/C (second compound 0.000949 µM, first compound 0.003 µM): 37.1%
viability, T/C (second compound 0.000949 µM, first compound 0.00949 µM): 22.9%
viability, T/C (second compound 0.000949 µM, first compound 0.03 µM): 16.4%
viability, T/C (second compound 0.000949 µM, first compound 0.0949 µM): 14.9%
viability, T/C (second compound 0.000949 µM, first compound 0.3 µM): 14%
viability, T/C (second compound 0.003 µM, first compound 0.000949 µM): 21.9%
viability, T/C (second compound 0.003 µM, first compound 0.003 µM): 16.8%
viability, T/C (second compound 0.003 µM, first compound 0.00949 µM): 10.4%
viability, T/C (second compound 0.003 µM, first compound 0.03 µM): 9.92%
viability, T/C (second compound 0.003 µM, first compound 0.0949 µM): 11.7%
viability, T/C (second compound 0.003 µM, first compound 0.3 µM): 8.33%
viability, T/C (second compound 0.00949 µM, first compound 0.000949 µM): 6.47%
viability, T/C (second compound 0.00949 µM, first compound 0.003 µM): 5.75%
viability, T/C (second compound 0.00949 µM, first compound 0.00949 µM): 5.48%
viability, T/C (second compound 0.00949 µM, first compound 0.03 µM): 5.23%
viability, T/C (second compound 0.00949 µM, first compound 0.0949 µM): 5.63%
viability, T/C (second compound 0.00949 µM, first compound 0.3 µM): 5.21%
viability, T/C (second compound 0.03 µM, first compound 0.000949 µM): 2.48%
viability, T/C (second compound 0.03 µM, first compound 0.003 µM): 2.69%
viability, T/C (second compound 0.03 µM, first compound 0.00949 µM): 2.99%
viability, T/C (second compound 0.03 µM, first compound 0.03 µM): 3.34%
viability, T/C (second compound 0.03 µM, first compound 0.0949 µM): 2.03%
viability, T/C (second compound 0.03 µM, first compound 0.3 µM): 1.64%
viability, T/C (second compound 0.0949 µM, first compound 0.000949 µM): 2.02%
viability, T/C (second compound 0.0949 µM, first compound 0.003 µM): 2.11%
viability, T/C (second compound 0.0949 µM, first compound 0.00949 µM): 1.57%
viability, T/C (second compound 0.0949 µM, first compound 0.03 µM): 1.95%
viability, T/C (second compound 0.0949 µM, first compound 0.0949 µM): 1.46%
viability, T/C (second compound 0.0949 µM, first compound 0.3 µM): 1.6%
viability, T/C (second compound 0.3 µM, first compound 0.000949 µM): 1.8%
viability, T/C (second compound 0.3 µM, first compound 0.003 µM): 1.64%
viability, T/C (second compound 0.3 µM, first compound 0.00949 µM): 1.69%
viability, T/C (second compound 0.3 µM, first compound 0.03 µM): 2.15%
viability, T/C (second compound 0.3 µM, first compound 0.0949 µM): 1.77%
viability, T/C (second compound 0.3 µM, first compound 0.3 µM): 1.54%

IC50 (curve of compound): 4.35 nM [middle of 4 runs]
Compound: CC1(C)CCC(Nc2ncc(C(F)(F)F)c(-c3c[nH]c4c(P(C)(C)=O)c(C#N)ccc34)n2)CN1 (stereo not given)
viability, T/C (compound 0.000949 µM): 84% [middle of 4 runs]
viability, T/C (compound 0.003 µM): 59.5% [middle of 4 runs]
viability, T/C (compound 0.00949 µM): 30% [middle of 4 runs]
viability, T/C (compound 0.03 µM): 21.3% [middle of 4 runs]
viability, T/C (compound 0.0949 µM): 16.6% [middle of 4 runs]
viability, T/C (compound 0.3 µM): 16.1% [middle of 4 runs]

Second part, the compound before the results:

Compound: CCc1c2c(nc3ccc(O)cc13)-c1cc3c(c(=O)n1C2)COC(=O)[C@]3(O)CC
viability, T/C (compound 0.000949 µM): 69.8% [middle of 4 runs]
viability, T/C (compound 0.003 µM): 35% [middle of 4 runs]
viability, T/C (compound 0.00949 µM): 16.7% [middle of 4 runs]
viability, T/C (compound 0.03 µM): 7.4% [middle of 4 runs]
viability, T/C (compound 0.0949 µM): 2.65% [middle of 4 runs]
viability, T/C (compound 0.3 µM): 2.02% [middle of 4 runs]
IC50 (curve of compound): 1.8 nM [middle of 4 runs]

Compound: Cc1nc(N2CCC3(CC2)COC(C)C3N)c(CO)nc1Sc1ccnc(N)c1Cl (stereo not given)
viability, T/C (compound 0.0316 µM): 92% [middle of 4 runs]
viability, T/C (compound 0.1 µM): 85.4% [middle of 4 runs]
viability, T/C (compound 0.316 µM): 83.3% [middle of 4 runs]
viability, T/C (compound 1 µM): 85.2% [middle of 4 runs]
viability, T/C (compound 3.16 µM): 84.6% [middle of 4 runs]
viability, T/C (compound 10 µM): 79% [middle of 4 runs]
IC50 (curve of compound): > 10 µM

Compound: CC(Nc1ccc2c(c1)OCCn1cc(N3C(=O)OCC3C(F)F)nc1-2)C(N)=O (stereo not given) + CCn1c(-c2cc(N3CCN(C)CC3)cnc2C(C)OC)c2c3cc(ccc31)-c1csc(n1)CC(NC(=O)C1CC1C)C(=O)N1CCCC(N1)C(=O)OCC(C)(C)C2
IC50 [1]: < 0.0316 µM
IC50 [2]: < 0.0316 µM
IC50 [3]: < 0.0316 µM
IC50 [4]: < 0.0316 µM
IC50 [5]: < 0.0316 µM
IC50 [6]: < 0.0316 µM
viability, T/C (second compound 0.000949 µM, first compound 0.0316 µM): 38.5%
viability, T/C (second compound 0.000949 µM, first compound 0.1 µM): 27%
viability, T/C (second compound 0.000949 µM, first compound 0.316 µM): 20.7%
viability, T/C (second compound 0.000949 µM, first compound 1 µM): 14.9%
viability, T/C (second compound 0.000949 µM, first compound 3.16 µM): 15.3%
viability, T/C (second compound 0.000949 µM, first compound 10 µM): 10%
viability, T/C (second compound 0.003 µM, first compound 0.0316 µM): 16.6%
viability, T/C (second compound 0.003 µM, first compound 0.1 µM): 13.9%
viability, T/C (second compound 0.003 µM, first compound 0.316 µM): 6.73%
viability, T/C (second compound 0.003 µM, first compound 1 µM): 6.02%
viability, T/C (second compound 0.003 µM, first compound 3.16 µM): 4.06%
viability, T/C (second compound 0.003 µM, first compound 10 µM): 4.35%
viability, T/C (second compound 0.00949 µM, first compound 0.0316 µM): 4.34%
viability, T/C (second compound 0.00949 µM, first compound 0.1 µM): 2.53%
viability, T/C (second compound 0.00949 µM, first compound 0.316 µM): 3.61%
viability, T/C (second compound 0.00949 µM, first compound 1 µM): 1.94%
viability, T/C (second compound 0.00949 µM, first compound 3.16 µM): 1.23%
viability, T/C (second compound 0.00949 µM, first compound 10 µM): 0.59%
viability, T/C (second compound 0.03 µM, first compound 0.0316 µM): 1.88%
viability, T/C (second compound 0.03 µM, first compound 0.1 µM): 1.58%
viability, T/C (second compound 0.03 µM, first compound 0.316 µM): 0.84%
viability, T/C (second compound 0.03 µM, first compound 1 µM): 0.45%
viability, T/C (second compound 0.03 µM, first compound 3.16 µM): 0.4%
viability, T/C (second compound 0.03 µM, first compound 10 µM): 0.18%
viability, T/C (second compound 0.0949 µM, first compound 0.0316 µM): 1.11%
viability, T/C (second compound 0.0949 µM, first compound 0.1 µM): 0.55%
viability, T/C (second compound 0.0949 µM, first compound 0.316 µM): 0.59%
viability, T/C (second compound 0.0949 µM, first compound 1 µM): 0.36%
viability, T/C (second compound 0.0949 µM, first compound 3.16 µM): 0.09%
viability, T/C (second compound 0.0949 µM, first compound 10 µM): 0.09%
viability, T/C (second compound 0.3 µM, first compound 0.0316 µM): 1.13%
viability, T/C (second compound 0.3 µM, first compound 0.1 µM): 0.5%
viability, T/C (second compound 0.3 µM, first compound 0.316 µM): 0.4%
viability, T/C (second compound 0.3 µM, first compound 1 µM): 0.29%
viability, T/C (second compound 0.3 µM, first compound 3.16 µM): 0.21%
viability, T/C (second compound 0.3 µM, first compound 10 µM): 0.14%
